Test results as given in patent US9745283B2, “Uracil derivatives as AXL and c-MET kinase inhibitors” (priority 2011, dated 2017).

Columns and labels:
[1] = biological target: recombinant human baculovirus-expressed AXL (Homo sapiens (Human), UniProt P30530); experiment: AXL Kinase Assay (HTRF KinEASE); format: biochemical; details: average of two or more determinations
Procedure: The ability of compounds to inhibit the kinase activity of recombinant human baculovirus-expressed AXL was measured by homogeneous TRF (HTRF) using Cisbio's KinEASE™ assay system in white 384-well Optiplates. Assay buffer contained 1 mM DTT, 2 mM MnCl2, 2% DMSO, […] supplement enzymatic buffer, and 1× enzymatic buffer. A 2× concentration of tyrosine kinase (TK) substrate-biotin/ATP mixture made in assay buffer was added to plates at 10 μL/well using the Multidrop Combi (Thermo Fisher Scientific, Waltham, Mass.). […] Compounds (100 nL), diluted in 100% DMSO on the Biomek FX, (Beckman Coulter, Inc., Brea, Calif.), were transferred to the assay plates using the Biomek FX pintool (2.5% final DMSO in assay). […] Plates were sealed, briefly shaken and incubated at 25° C. for 30 minutes. […] Plates were sealed, briefly shaken and incubated at 25° C. for 1 hour.
Inhibition curves for compounds were generated by plotting percent control activity versus log 10 of the concentration of compound. IC50 values were calculated by nonlinear regression using the sigmoidal dose-response (variable slope) equation in GraphPad Prism as follows: y=bottom+(top−bottom)/(1+10(log IC50−x)*Hill Slope) where y is the % kinase activity at a given concentration of compound, x is the logarithm of the concentration of compound, bottom is the % of control kinase activity at the highest compound concentration tested, and top is the % of control kinase activity at the lowest compound concentration examined. The values for bottom and top were fixed at 0 and 100, respectively.

[2] = biological target: recombinant human baculovirus-expressed cMET (Homo sapiens (Human), UniProt P08581); experiment: C-MET Kinase Assay (HTRF KinEASE); format: biochemical; details: average of two or more determinations; read-out: c-MET IC50
Summary of the method: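 HTRF KinEASE format with recombinant human baculovirus-expressed cMET at 8 ng/mL, biotinylated peptide at 0.1 μM and ATP at 0.02 μM. IC50 came from percent control activity versus log concentration, fitted by nonlinear regression to a variable-slope sigmoidal equation with bottom fixed at 0 and top at 100.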

IC50 [1] | IC50 [2] | Structure (SMILES)
< 10 nM | < 10 nM | COc1cc2nccc(Oc3ccc(NC(=O)c4cn(CCn5cccn5)c(=O)n(-c5ccc(F)cc5)c4=O)cc3F)c2cc1OC [Example 63, 3-(4-Fluoro-phenyl)-2,4-dioxo-1-(2-pyrazol-1-yl-ethyl)-1,2,3,4-tetrahydro-pyrimidine-5-carboxylic acid [4-(6,7-dimethoxy-quinolin-4-yloxy)-3-fluoro-phenyl]-amide]
< 10 nM | 10 to 100 nM | C=CCn1cc(C(=O)Nc2ccc(Oc3ccnc4cc(OC)c(OC)cc34)cc2F)c(=O)n(-c2ccc(F)cc2)c1=O [Example 88, 1-Allyl-3-(4-fluoro-phenyl)-2,4-dioxo-1,2,3,4-tetrahydro-pyrimidine-5-carboxylic acid [4-(6,7-dimethoxy-quinolin-4-yloxy)-2-fluoro-phenyl]-amide]
< 10 nM | 10 to 100 nM | COc1cc2nccc(Oc3ccc(NC(=O)c4cn(C)c(=O)n(-c5ccc(F)cc5)c4=O)c(F)c3)c2cc1OC [Example 86, 3-(4-Fluoro-phenyl)-1-methyl-2,4-dioxo-1,2,3,4-tetrahydro-pyrimidine-5-carboxylic acid [4-(6,7-dimethoxy-quinolin-4-yloxy)-2-fluoro-phenyl]-amide]
< 10 nM | < 10 nM | CCn1cc(C(=O)Nc2ccc(Oc3ccnc4cc(OC)c(OC)cc34)c(F)c2F)c(=O)n(-c2ccc(F)cc2)c1=O [Example 147, 1-Ethyl-3-(4-fluoro-phenyl)-2,4-dioxo-1,2,3,4-tetrahydro-pyrimidine-5-carboxylic acid [4-(6,7-dimethoxy-quinolin-4-yloxy)-2,3-difluoro-phenyl]-amide]
< 10 nM | 10 to 100 nM | COc1cc2nccc(Oc3ccc(NC(=O)c4cn(Cc5ncco5)c(=O)n(-c5ccc(F)cc5)c4=O)cc3F)c2cc1OC [Example 72, 3-(4-Fluoro-phenyl)-1-oxazol-2-ylmethyl-2,4-dioxo-1,2,3,4-tetrahydro-pyrimidine-5-carboxylic acid [4-(6,7-dimethoxy-quinolin-4-yloxy)-3-fluoro-phenyl]-amide]
< 10 nM | < 10 nM | CCn1nc(C(=O)Nc2ccc(Oc3ccnc4cc(OC)ccc34)c(F)c2)c(=O)n(-c2ccc(F)cc2)c1=O [Example 171, 2-Ethyl-4-(4-fluoro-phenyl)-3,5-dioxo-2,3,4,5-tetrahydro-1,2,4-triazine-6-carboxylic acid [3-fluoro-4-(7-methoxy-quinolin-4-yloxy)-phenyl]-amide]

The next lines start with the molecule.

Structure (SMILES) | IC50 [1] | IC50 [2]
COc1cc2nccc(Oc3ccc(NC(=O)c4nn(C)c(=O)n(-c5ccc(F)cc5)c4=O)cc3F)c2cc1OC [Example 104, 4-(4-Fluorophenyl)-2-methyl-3,5-dioxo-2,3,4,5-tetrahydro-[1,2,4]triazine-6-carboxylic acid [4-(6,7-dimethoxy-quinolin-4-yloxy)-3-fluoro-phenyl]-amide] | < 10 nM | < 10 nM
COc1cc2nccc(Oc3ccc(NC(=O)c4nn(C)c(=O)n(CC(C)(C)C)c4=O)cc3F)c2cc1OC [Example 129, 4-(2,2-Dimethylpropyl)-2-methyl-3,5-dioxo-2,3,4,5-tetrahydro-[1,2,4]triazine-6-carboxylic acid [4-(6,7-dimethoxyquinolin-4-yloxy)-3-fluorophenyl]-amide] | < 10 nM | 10 to 100 nM
C#CCn1nc(C(=O)Nc2ccc(Oc3ccnc4cc(OC)c(OC)cc34)c(F)c2)c(=O)n(-c2ccc(F)cc2)c1=O [Example 113, 4-(4-Fluoro-phenyl)-3,5-dioxo-2-prop-2-ynyl-2,3,4,5-tetrahydro-[1,2,4]triazine-6-carboxylic acid [4-(6,7-dimethoxy-quinolin-4-yloxy)-3-fluoro-phenyl]-amide] | < 10 nM | < 10 nM
COc1cc2nccc(Oc3ccc(NC(=O)c4cn(CC5CC5)c(=O)n(-c5ccc(F)cc5)c4=O)cc3F)c2cc1OC [Example 6, 1-Cyclopropylmethyl-3-(4-fluorophenyl)-2,4-dioxo-1,2,3,4-tetrahydropyrimidine-5-carboxylic acid [4-(6,7-dimethoxyquinolin-4-yloxy)-3-fluorophenyl]-amide] | < 10 nM | < 10 nM
